Assays:
[1] = target: T1, PPARγ (Mus musculus, UniProt P37238); assay: Luciferase transcriptional reporter gene assay, pFA-PPARγ-LBD in BHK21 cells; assay type: cell-based; conditions: Gal4-PPARγ-LBD
T1 construct: expressed in transfected cells; host or cells: BHK21 (ATCC CCL10)
T1 sequence (P37238 204-505): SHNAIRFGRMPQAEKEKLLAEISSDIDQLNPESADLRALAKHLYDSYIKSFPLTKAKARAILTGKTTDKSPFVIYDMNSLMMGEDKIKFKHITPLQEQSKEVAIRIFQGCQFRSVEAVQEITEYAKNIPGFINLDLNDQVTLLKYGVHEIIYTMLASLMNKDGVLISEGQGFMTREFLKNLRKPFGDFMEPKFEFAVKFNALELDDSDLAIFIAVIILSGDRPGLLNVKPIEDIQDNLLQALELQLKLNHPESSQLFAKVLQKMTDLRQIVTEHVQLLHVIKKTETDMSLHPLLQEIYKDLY
Text: (§1) Full-length cDNA clones for human PPARα and mouse PPARγ were obtained by RT-PCR from human adipose and mouse liver cRNA, respectively, cloned into plasmid vectors and verified by DNA sequencing. […] To accomplish this, the portions of the cloned sequences encoding the LBDs were amplified from the full-length clones by PCR and then subcloned into the plasmid vectors pGEX4T-2(Pharmacia) and pFA-CMV(Stratagene). Final clones were verified by DNA sequence analysis.
(§2) Baby hamster kidney cells (BHK21 ATCC CCL10) were grown in DMEM medium containing 10% FBS at 37° C. in a […]:5% CO2 atmosphere. Cells were seeded in 6 well plates at a density of 10^5 Cells/well and then batch-transfected with either the pFA-PPARγ-LBD or pFA-PPARα-LBD expression plasmids plus the pFR-luc reporter plasmid (Stratagene) and an expression plasmid encoding the secretable form of alkaline phosphatase (SEAP) as a normalization control. […] Six hours following transfection, the cells were harvested by trypsinization and seeded in 96 well plates at a density of 10^4 cells/well. After 24 hours to allow attachment of cells, the medium was removed and replaced with 100 ul of phenol red-free medium containing the test substances or control ligands (final. 0.1% DMSO). Following incubation of the cells for 24 hours with substances, 50 ul of the supernatant was recovered and analyzed for SEAP activity (Roche Molecular Biochemicals). The remainder of the supernatant was discarded, 50 ul PBS was added per well followed by one volume of Luciferase Constant-Light Reagent (Roche Molecular Biochemicals) to lyse the cells and initiate the luciferase reaction. Luminescence for both SEAP and luciferase was measured in a Packard TopCount. Luciferase activity was normalized to the SEAP control and transcriptional activation in the presence of a test substance was expressed as fold-activation over cells incubated in the absence of the substance. EC50 values were calculated using the XLfit program (ID Business Solutions Ltd. UK).

[2] = target: T2, PPARα (Homo sapiens, UniProt Q07869); assay: Luciferase transcriptional reporter gene assay, pFA-PPARα-LBD in BHK21 cells; assay type: cell-based; design: expressed in transfected cells; host or cells: BHK21 (ATCC CCL10); conditions: Gal4-PPARα-LBD
T2 sequence (Q07869 167-468 limits assumed): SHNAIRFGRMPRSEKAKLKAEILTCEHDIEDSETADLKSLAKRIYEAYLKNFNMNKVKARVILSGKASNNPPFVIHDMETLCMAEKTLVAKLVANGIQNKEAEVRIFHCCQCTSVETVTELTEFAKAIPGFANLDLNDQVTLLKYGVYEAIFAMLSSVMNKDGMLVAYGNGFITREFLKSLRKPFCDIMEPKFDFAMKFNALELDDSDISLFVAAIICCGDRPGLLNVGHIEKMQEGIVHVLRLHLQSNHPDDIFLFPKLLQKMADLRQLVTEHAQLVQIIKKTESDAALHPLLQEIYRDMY
Text: as §1, §2

[3] = target: T3, PPARγ (Mus musculus, UniProt P37238); assay: Radioligand binding assay, PPARγ receptor binding (GST-PPARγ-LBD fusion protein, SPA); conditions: scintillation proximity
T3 construct: made in house; host or cells: E. coli BL21(pLysS)
T3 sequence (P37238 174-475 isoform P37238-2): T1 sequence (P37238 204-505)
Text: as §1
(§3) Induction, expression, and purification of GST-LBD fusion proteins were performed in E. coli strain BL21(pLysS) cells by standard methods (Ref: Current Protocols in Molecular Biology, Wiley Press, edited by Ausubel et al.).
PPARγ receptor binding was assayed in TKE50 (50 mM Tris-HCl, pH 8, 50 mM KCl, 2 mM EDTA, 0.1 mg/ml fatty acid-free BSA and 10 mM DTT). For each 96 well reaction an 140 ng equivalent of GST-PPARγ-LBD fusion protein was bound to 10 ug SPA beads (PharmaciaAmersham) in a final volume of 50 ul by shaking. The resulting slurry was incubated for 1 h at RT and centrifuged for 2 min at 1300 g. The supernatant containing unbound protein was removed and the semidry pellet containing the recptor-coated beads was resolved in 50 ul of TKE. For radioligand binding e.g. 10000 dpm 2(S)-(2-benzoyl-phenylamino)-3-{4-[1,1-ditritio-2-(5-methyl-2-phenyl-oxazol-4-yl)-ethoxy]-phenyl}-propionic acid in 50 ul were added, the reaction incubated at RT for 1 h and scintillation proximity counting performed. All binding assays were performed in 96 well plates and the amount of bound ligand measured on a Packard TopCount using OptiPlates (Packard). Nonspecific binding was determined in the presence of 10^−4 M unlabelled compound. Dose response curves were done in triplicates within a range of concentration from 10^−10 M to 10^−4 M.

[4] = target: T2, PPARα; assay: Radioligand binding assay, PPARα receptor binding (GST-PPARα-LBD fusion protein)
Text: as §1, §3
PPARα receptor binding was assayed in TKE10 (10 mM Tris-HCl, pH 8, 50 mM KCl, 2 mM EDTA, 0.1 mg/ml fatty acid free BSA and 10 mM DTT). […]
PPARγ receptor binding was assayed in TKE50 (50 mM Tris-HCl, pH 8, 50 mM KCl, 2 mM EDTA, 0.1 mg/ml fatty acid-free BSA and 10 mM DTT). […] All binding assays were performed in 96 well plates and the amount of bound ligand measured on a Packard TopCount using OptiPlates (Packard). Nonspecific binding was determined in the presence of 10^−4 M unlabelled compound. […]

| EC50 [1] | EC50 [2] | IC50 [3] | IC50 [4] | SMILES | melting point |
| --- | --- | --- | --- | --- | --- |
| 464 nM | 8 nM | 3170 nM | – | COC(Cc1ccc(OCCCc2nc(-c3ccc(Cl)cc3)oc2C)c2ccsc12)C(=O)O (racemic) [Example 48, [rac]-3-(4-{3-[2-(4-Chloro-phenyl)-5-methyl-oxazol-4-yl]-propoxy}-benzo[b]thiophen-7-yl)-2-methoxy-propionic acid] | – |
| 501 nM | 138 nM | 112 nM | 259 nM | C/C(=C/C(=O)c1ccc(C(F)(F)F)cc1)NC(Cc1ccc(OCCc2nc(-c3ccccc3)oc2C)c2ccsc12)C(=O)O (racemic) [Example 106, [rac]-2-[1-Methyl-3-oxo-3-(4-trifluoromethyl-phenyl)-(Z)-propenylamino]-3-{4-[2-(5-methyl-2-phenyl-oxazol-4-yl)-ethoxy]-benzo[b]thiophen-7-yl}-propionic acid] | – |
| – | – | – | – | CCCCOC(Cc1ccc(OCCc2nc(-c3ccccc3)oc2C)c2ccsc12)C(=O)O (stereo not shown) [Example 4, 2-Butoxy-3-{4-[2-(5-methyl-2-phenyl-oxazol-4-yl)-ethoxy]-benzo[b]thiophen-7-yl}-propionic acid] | 123 °C (dec.) |
| – | – | – | – | CCCCOC(Cc1ccc(OCCc2nc(-c3ccccc3)oc2C)c2ccccc12)C(=O)O (stereo not shown) [Example 10, 2-Butoxy-3-{4-[2-(5-methyl-2-phenyl-oxazol-4-yl)-ethoxy]-naphthalen-1-yl}-propionic acid] | 88 to 90 °C (dec.) |
| 188 nM | 746 nM | 25 nM | 109 nM | CCO/C(=C\c1ccc(OCCc2nc(-c3ccccc3)oc2C)c2ccoc12)C(=O)O [Example 83, 2Z-Ethoxy-3-{4-[2-(5-methyl-2-phenyl-oxazol-4-yl)-ethoxy]-benzofuran-7-yl}-acrylic acid] | – |

— patent publication US6642389B2, “Oxazole derivatives” (Hoffmann-La Roche Inc., priority 2001, dated 2003)
